In brackets after ≈: the same amount, converted by molar mass. Where two headings read alike, the source gives them in different places.
Tests used:
[1] = test system: P. aeruginosa (PAO1); assay: MIC of doxycycline alone on PAO1; type: cell-based; settings: Pseudomonas aeruginosa, Gram-negative strain P. aeruginosa (PAO1)
Description: On the Gram-negative strain of P. aeruginosa (PAO1), doxycycline has an MIC of 40 μg/mL.

[2] = test system: P. aeruginosa Human ATCC 27853; assay: MIC determination, P. aeruginosa human ATCC 27853; type: cell-based; settings: Pseudomonas aeruginosa, ATCC27853; Gram-negative; Mueller-Hinton medium, 24 h at 37° C.
In short: (§1)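 Broth microdilution in Mueller-Hinton medium, inoculum at OD 0.01, compounds (5 mg/mL stock in DMSO/methanol 50/50) serially diluted twofold. Plates incubated 24 h at 37° C. under humid atmosphere, read at OD 620 nm for MIC; duplicates.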

[3] = test system: S. aureus Human ATCC 25923; assay: MIC determination, S. aureus human ATCC 25923; type: cell-based; settings: Staphylococcus aureus, ATCC25923; Gram-positive; Mueller-Hinton medium, 24 h at 37° C.
In short: as §1

[4] = test system: C. albicans; assay: Antifungal activity, cascade microdilution; type: cell-based; settings: Candida albicans, 24 h, read-out: IC50 (μg/mL) C. albicans
[5] = test system: E. coli Human ATCC 28922; assay: MIC determination, E. coli human ATCC 28922; type: cell-based; settings: Escherichia coli, ATCC28922; Gram-negative; Mueller-Hinton medium, 24 h at 37° C.
In short: as §1

[6] = test system: E. faecalis Human ATCC 29212; assay: MIC determination, E. faecalis human ATCC 29212; type: cell-based; settings: Enterococcus faecalis, ATCC29212; Gram-positive; Mueller-Hinton medium, 24 h at 37° C.
In short: as §1

[7] = test system: P. aeruginosa (1051575); assay: Potentiation of doxycycline activity (combination MIC); type: cell-based, Pseudomonas aeruginosa; settings: in presence of doxycycline 2 μg/mL; 24 hours at 37° C.
[8] = test system: E. coli Animal (1956); assay: MIC determination, E. coli animal (1956); type: cell-based; settings: Escherichia coli; Gram-negative; Mueller-Hinton medium, 24 h at 37° C.
In short: as §1

[9] = test system: P. aeruginosa Animal (1051575); assay: MIC determination, P. aeruginosa animal (1051575); type: cell-based; settings: Pseudomonas aeruginosa; Gram-negative; Mueller-Hinton medium, 24 h at 37° C.
In short: as §1

[10] = test system: S. aureus Animal (340); assay: MIC determination, S. aureus animal (340); type: cell-based; settings: Staphylococcus aureus; Gram-positive; Mueller-Hinton medium, 24 h at 37° C.
In short: as §1

[11] = test system: CHO-K1 cells; assay: WST1 cytotoxicity test on CHO-K1 cells; type: cell-based, Chinese hamster; settings: Cricetulus griseus
In short: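 CHO-K1 cells pre-grown 24 h, then exposed to increasing compound concentrations in duplicate for 24 h at 37° C, 5% CO2. Viability read after 20 min with 10% WST-1 in PBS at 450 nm; IC50 from nonlinear regression as concentration cutting viability 50%.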

[12] = test system: S. intermedius Animal (1051997); assay: MIC determination, S. intermedius animal (1051997); type: cell-based; settings: Staphylococcus intermedius; Gram-positive; Mueller-Hinton medium, 24 h at 37° C.
In short: as §1

[13] = test system: P. aeruginosa (1051575); assay: Potentiation of chloramphenicol activity (combination MIC); type: cell-based, Pseudomonas aeruginosa; settings: chloramphenicol 2 μg/mL; concentration of compound required to restore antibiotic activity
Description: This method requires the use of a 96-well plate: 100 μL of a liquid culture medium are placed in each well and then seeded with the microbial suspension prepared previously. The required volume to be seeded is calculated for an OD of 0.01, which corresponds to about 5×10^6 bacteria in each well. In this plate, the first line corresponds to a negative control (200 μL of sterile culture medium in each well), the second line corresponds to a positive control (100 μL of sterile culture medium+100 μL of the bacterial suspension), and the third line contains 192 μL of culture medium; 8 μL of compound of formula (I) to be tested are placed in each well. Thereafter, a cascade dilution is performed from this line. […] 92 μL of bacterial suspension are then added to lines 3 to 8. The results are read (the determination of the MIC (2 μg/mL of doxycycline) in the presence of X g/mL of compound of formula (I)) after 24 hours of incubation at 37° C. under a humid atmosphere. After 24 hours of incubation at 37° C., 40 μL of nitro tetrazolium iodide are added to each well to reveal the presence of live bacteria by staining the medium pink.
The procedure is identical to that indicated in Example 5 above. […]
(§2) The results are given in table V. They indicate the concentration of compound of formula (I) required to be able to restore the activity of the antibiotic under consideration.

[14] = test system: P. aeruginosa (1051575); assay: Potentiation of erythromycin activity (combination MIC); type: cell-based, Pseudomonas aeruginosa; settings: erythromycin 2 μg/mL; concentration of compound required to restore antibiotic activity
Description: This method requires the use of a 96-well plate: 100 μL of a liquid culture medium are placed in each well and then seeded with the microbial suspension prepared previously. The required volume to be seeded is calculated for an OD of 0.01, which corresponds to about 5×10^6 bacteria in each well. In this plate, the first line corresponds to a negative control (200 μL of sterile culture medium in each well), the second line corresponds to a positive control (100 μL of sterile culture medium+100 μL of the bacterial suspension), and the third line contains 192 μL of culture medium; 8 μL of compound of formula (I) to be tested are placed in each well. Thereafter, a cascade dilution is performed from this line. L of a doxycycline solution (1 mg dissolved in 20 mL) are then added to each well of lines 3 to 8 to obtain a final antibiotic concentration of 2 μg/mL. 92 μL of bacterial suspension are then added to lines 3 to 8. The results are read (the determination of the MIC (2 μg/mL of doxycycline) in the presence of X g/mL of compound of formula (I)) after 24 hours of incubation at 37° C. under a humid atmosphere. After 24 hours of incubation at 37° C., 40 μL of nitro tetrazolium iodide are added to each well to reveal the presence of live bacteria by staining the medium pink.
The procedure is identical to that indicated in Example 5 above. 8 μL of an antibiotic solution under consideration (1 mg dissolved in 20 mL) are added to obtain a final antibiotic concentration of 2 μg/mL instead of 8 μL of a doxycycline solution.
as §2

[15] = CHO-K1, 24 h, read-out: IC50 (μg/mL) CHO
[16] = CHO-K1, read-out: IC50 (μg/mL) CHO

Row | Structure (SMILES) | MIC [1] | MIC [2] | MIC [3] | IC50 [4] | MIC [5] | MIC [6] | MIC - P. aeruginosa (1051575): content of compound of formula (I) to restore the doxycycline activity (at 2 μg/mL) [7] | MIC [8] | MIC [9] | MIC [10] | IC50 [11, 15] | IC50 [11, 16] | MIC [12] | MIC P. aeruginosa (1051575) compound + chloramphenicol [13] | MIC P. aeruginosa (1051575) compound + erythromycin [14]
1 | C[C@H]1c2cccc(O)c2C(=O)C2=C(O)[C@]3(O)C(=O)C(C(N)=O)=C(O)[C@@H](N(C)C)[C@@H]3[C@@H](O)[C@@H]21 [doxycycline] | 40 µg/mL |  |  |  |  |  |  |  |  |  |  |  |  |  | 
2 | CC(C)NC(=O)CC[C@@H](C)[C@H]1CCC2C3C(CC[C@@]21C)[C@@]1(C)CC[C@H](NCCCNCCCCNCCCN)CC1C[C@H]3O (stereo partly drawn) [Compound (32), 3β-spermino-N-isopropylchenodeoxycholamide] |  | 30 µg/mL (≈ 48.5 µM) | 7 µg/mL (≈ 11.3 µM) | 2 µg/mL (≈ 3.24 µM) | 15 µg/mL (≈ 24.3 µM) | 7 µg/mL (≈ 11.3 µM) | 1 µg/mL | 31 µg/mL (≈ 50.2 µM) | 15 µg/mL (≈ 24.3 µM) | 2 µg/mL (≈ 3.24 µM) | 34 µg/mL (≈ 55 µM) | 13 µg/mL (≈ 21 µM) | 0.5 µg/mL (≈ 0.809 µM) |  | 
3 | CC(C)NC(=O)CC[C@@H](C)[C@H]1CCC2C3CCC4C[C@@H](NCCCNCCCNCCCN)CC[C@]4(C)C3C[C@H](O)[C@@]21C (stereo partly drawn) [Compound (1), 3β-norspermino-N-isopropyldeoxycholamide] |  | 8 µg/mL (≈ 13.2 µM) | 4 µg/mL (≈ 6.62 µM) | 0.5 µg/mL (≈ 0.828 µM) | 8 µg/mL (≈ 13.2 µM) | 8 µg/mL (≈ 13.2 µM) | 1 µg/mL | 8 µg/mL (≈ 13.2 µM) | 8 µg/mL (≈ 13.2 µM) | 2 µg/mL (≈ 3.31 µM) | 42 µg/mL (≈ 69.5 µM) | 33 µg/mL (≈ 54.6 µM) | 0.5 µg/mL (≈ 0.828 µM) |  | 
4 | CCN(CC)C(=O)CC[C@@H](C)[C@H]1CCC2C3C(CC[C@@]21C)[C@@]1(C)CC[C@H](NCCCN(CCCN)CCCN)CC1C[C@H]3O (stereo partly drawn) [(44), 3β-(tris(3-aminopropyl)amine)-N,N-diethylchenodeoxycholamide] |  | 60 µg/mL (≈ 97.1 µM) | 2 µg/mL (≈ 3.24 µM) | 0.5 µg/mL (≈ 0.809 µM) | 15 µg/mL (≈ 24.3 µM) |  | 2 µg/mL | 30 µg/mL (≈ 48.5 µM) | 60 µg/mL (≈ 97.1 µM) | 4 µg/mL (≈ 6.47 µM) | 75 µg/mL (≈ 121 µM) | 75 µg/mL (≈ 121 µM) | 2 µg/mL (≈ 3.24 µM) | 4 µg/mL | 8 µg/mL
5 | CC(C)NC(=O)CC[C@@H](C)[C@H]1CCC2C3C(C[C@H](O)[C@@]21C)[C@@]1(C)CC[C@H](NCCCNCCCNCCCN)CC1C[C@H]3O (stereo partly drawn) [(4), 3β-norspermino-N-isopropylcholamide] |  | 64 µg/mL (≈ 103 µM) | 8 µg/mL (≈ 12.9 µM) | 8 µg/mL (≈ 12.9 µM) | 16 µg/mL (≈ 25.8 µM) | 32 µg/mL (≈ 51.6 µM) | 1 µg/mL | 32 µg/mL (≈ 51.6 µM) | 32 µg/mL (≈ 51.6 µM) | 16 µg/mL (≈ 25.8 µM) | 65 µg/mL (≈ 105 µM) | 170 µg/mL (≈ 274 µM) | 4 µg/mL (≈ 6.45 µM) |  | 
